Measurements: patent publication US8735129B2, “Ginsenoside glycosidase derived from the genus Terrabacter, and use thereof” (Korea Research Institute of Bioscience and Biotechnology, priority 2009, dated 2014)
Where two headings read alike, the source gives them in different places.

Key:
[1] = system: B16 melanoma, MK-1 (stomach cancer cell), ovarian cancer cell (HRA); settings: MK-1, HRA; cited from earlier work
[2] = system: F9 teratocarcinoma stem cells; settings: cited from earlier work
recombinant Bgl-gyp17 [3] = assay: Enzymatic hydrolysis of PPD-type ginsenosides (TLC, HPLC, NMR); assay type: biochemical, Terrabacter ginsenosidimutans Gsoil 3082; settings: 0.2 U enzyme, 50 mM sodium phosphate pH 7.0, 37° C., hydrolysis of glucoses at C-3
Description: In order to analyze the specificity and selectivity of the recombinant enzyme for the hydrolysis of glucose at the C-3 and C-20 positions of PPD-type ginsenoside, ginsenoside Rb1, Rb2, Rc, Rd, and Rg3 were used as substrates. Each reaction mixture containing 0.2 U enzyme, 50 mM sodium phosphate buffer 0.1% (w/v) (pH 7.0), and the substrate was incubated at 37° C. Each sample was withdrawn at regular intervals, and an equal volume of water-saturated butanol was added to stop the reaction. The n-butanol fraction was evaporated to dryness, and any residual material was dissolved in CH3OH and then examined by TLC HPLC or NMR analysis.

[4] = cited from earlier work
tumor cells = settings: cited from earlier work
[5] = system: refolded recombinant ginsenoside glycosidase; assay: Reaction of refolded recombinant ginsenoside glycosidase with Rb1, TLC analysis; assay type: biochemical, Terrabacter ginsenosidimutans Gsoil 3082; settings: 1 mg/ml Rb1 solution in 50 mM sodium phosphate
Description: E. coli C41(DE3) containing an overexpressing plasmid was cultured in LB-ampicillin media at 37° C. when the OD value at 600 nm reached 0.6, and treated with 0.5 mM isopropyl-β-D-thiogalactopyranoside for 12 hours to induce protein expression. The bacterial cells were obtained by centrifugation at 4° C. and 5,000×g for 20 minutes. The cell pellet was resuspended in a solution (suspension) consisting of 50 mM sodium phosphate, 5 mM EDTA, and 1% Triton X-100 (pH 7.0) and subjected to ultrasonification. Since the recombinant ginsenoside glycosidase was expressed as an insoluble inclusion body, the sonicated lysate was centrifuged at 4° C. and 20,000×g for 30 minutes to obtain a pellet. The pellet was washed twice with a suspension solution in the absence of Triton X-100. The inclusion body was stirred in a solution containing 50 mM sodium phosphate, 5 mM EDTA, and 8 M urea (pH 8.0) at room temperature overnight for solubilization. After centrifugation (20,000×g, 30 minutes, 4° C.), the solubilized protein was diluted with 40 volumes of a refolding buffer containing 50 mM sodium phosphate, 5% glycerol, 0.05% polyethylene glycol and 0.5 mM sodium chloride at pH 7.0, and refolding of the protein was performed at 4° C. for 24 hours. […] Protein similarity was determined by 10% SDS-PAGE and Coomassie Blue staining. […]

recombinant Bgl-gyp17 [6] = assay: Enzymatic hydrolysis of PPD-type ginsenosides (TLC, HPLC, NMR); assay type: biochemical, Terrabacter ginsenosidimutans Gsoil 3082; settings: 1 mg/ml ginsenoside Rb1, enzyme concentrations lower than 0.01 mg/ml
[7] = orally administered into the human body

In the case of CC(C)=CCC[C@](C)(O)[C@H]1CC[C@]2(C)[C@@H]1[C@H](O)C[C@@H]1[C@@]3(C)CC[C@H](O)C(C)(C)[C@@H]3[C@@H](O[C@@H]3O[C@H](CO)[C@@H](O)[C@H](O)[C@H]3O)C[C@]12C [Rh1], the “inhibitory effects on proliferation” value [1] is given as “strong inhibitory effects” and the induction of differentiation [2] is given as “strongly induce the differentiation”.
In the case of CC(C)=CCC[C@](C)(O)[C@H]1CC[C@]2(C)[C@@H]1[C@H](O)C[C@@H]1[C@@]3(C)CC[C@H](O[C@@H]4O[C@H](CO)[C@@H](O)[C@H](O)[C@H]4O)C(C)(C)[C@@H]3CC[C@]12C [Rh2, ginsenoside Rh2], the “conversion of the ginsenoside by the enzyme (product)” value (shortened to “conversion … (product)”) (recombinant Bgl-gyp17 [3]) is given as “converted Rh2 into PPD and PPD”, the “inhibitory effects on proliferation” value [1] is given as “strong inhibitory effects” and the induction of differentiation [2] is given as “strongly induce the differentiation”.
In the case of CC(C)=CCC[C@](C)(O[C@@H]1O[C@H](CO[C@@H]2O[C@@H](CO)[C@H](O)[C@H]2O)[C@@H](O)[C@H](O)[C@H]1O)[C@H]1CC[C@]2(C)[C@@H]1[C@H](O)C[C@@H]1[C@@]3(C)CC[C@H](O[C@@H]4O[C@H](CO)[C@@H](O)[C@H](O)[C@H]4O[C@@H]4O[C@H](CO)[C@@H](O)[C@H](O)[C@H]4O)C(C)(C)[C@@H]3CC[C@]12C [Rc, ginsenoside Rc], the in vivo absorption [4, 7] is listed as “very low in vivo absorption” and the “conversion … (product)” value (recombinant Bgl-gyp17 [3]) is listed as “C-Mc (compound Mc) and C-Mc”.
For CC(C)=CCC[C@](C)(O[C@@H]1O[C@H](CO)[C@@H](O)[C@H](O)[C@H]1O)[C@H]1CC[C@]2(C)[C@@H]1[C@H](O)C[C@@H]1[C@@]3(C)CC[C@H](O[C@@H]4O[C@H](CO)[C@@H](O)[C@H](O)[C@H]4O)C(C)(C)[C@@H]3CC[C@]12C [F2, ginsenoside F2], the “effect on proliferation of tumor cells” value (tumor cells) is given as “suppressing the proliferation of tumor cells”, the “effect on multi-drug resistance” value (tumor cells; tumor cells and bacteria) is given as “reversing multi-drug resistance” and the “conversion … (product)” value (recombinant Bgl-gyp17 [3]) is given as “further converted into C—K (compound K) and C—K”.
In the case of CC(C)=CCC[C@](C)(O[C@@H]1O[C@H](CO[C@@H]2OC[C@H](O)[C@H](O)[C@H]2O)[C@@H](O)[C@H](O)[C@H]1O)[C@H]1CC[C@]2(C)[C@@H]1[C@H](O)C[C@@H]1[C@@]3(C)CC[C@H](O[C@@H]4O[C@H](CO)[C@@H](O)[C@H](O)[C@H]4O[C@@H]4O[C@H](CO)[C@@H](O)[C@H](O)[C@H]4O)C(C)(C)[C@@H]3CC[C@]12C [ginsenoside Rb2], the in vivo absorption ([4]; in vivo, po) is given as “very low in vivo absorption”, the “conversion … (product)” value (recombinant Bgl-gyp17 [3]) is given as “C—Y (compound Y)” and the “conversion … (product)” value (recombinant Bgl-gyp17 [3]; listed as Rb2) is given as “C—Y”.
For CC(C)=CCC[C@](C)(O[C@@H]1O[C@H](CO[C@@H]2O[C@H](CO)[C@@H](O)[C@H](O)[C@H]2O)[C@@H](O)[C@H](O)[C@H]1O)[C@H]1CC[C@]2(C)[C@@H]1[C@H](O)C[C@@H]1[C@@]3(C)CC[C@H](O[C@@H]4O[C@H](CO)[C@@H](O)[C@H](O)[C@H]4O[C@@H]4O[C@H](CO)[C@@H](O)[C@H](O)[C@H]4O)C(C)(C)[C@@H]3CC[C@]12C [ginsenoside Rb1], the “conversion of the ginsenoside (TLC)” value [5] is listed as “converted ginsenoside Rb1 into gyp XVII”, the “hydrolysis of the ginsenoside” value (recombinant Bgl-gyp17 [6]) is listed as “completely hydrolyzed to produce gyp XVII” and the in vivo absorption ([4]; in vivo, po) is listed as “very low in vivo absorption”. For the same compound, the “conversion … (product)” value (recombinant Bgl-gyp17 [3]) was “C—K”.
In the case of CC(C)=CCC[C@](C)(O[C@@H]1O[C@H](CO)[C@@H](O)[C@H](O)[C@H]1O)[C@H]1CC[C@]2(C)[C@@H]1[C@H](O)C[C@@H]1[C@@]3(C)CC[C@H](O)C(C)(C)[C@@H]3[C@@H](O[C@@H]3O[C@H](CO)[C@@H](O)[C@H](O)[C@H]3O)C[C@]12C [Rg1], the in vivo absorption [4, 7] is listed as “very low in vivo absorption”.
For CC(C)=CCC[C@](C)(O[C@@H]1O[C@H](CO)[C@@H](O)[C@H](O)[C@H]1O)[C@H]1CC[C@]2(C)[C@@H]1[C@H](O)C[C@@H]1[C@@]3(C)CC[C@H](O)C(C)(C)[C@@H]3[C@@H](O[C@@H]3O[C@H](CO)[C@@H](O)[C@H](O)[C@H]3O[C@@H]3O[C@@H](C)[C@H](O)[C@@H](O)[C@H]3O)C[C@]12C [Re], the in vivo absorption [4, 7] is listed as “very low in vivo absorption”.
